Experimental data published in patent US8846762B2, “Benzopyran and benzoxepin PI3K inhibitor compounds and methods of use” (Genentech, Inc., priority 2008, dated 2014).

How the values were obtained:
pAkt (phospho-Akt) = test: phospho AKT induction assay; format: cell-based; conditions: in each study (Example 284); cells treated with an EC80 of the compound
Protocol: In a 6-well tissue culture plate cells were seeded at 5×10^5 cells per well overnight. […] Determination of protein concentration was performed using the Pierce BCA Protein Assay Kit (Rockford, Ill.). Levels of pAkt (Ser^473) and total Akt were assessed using bead kits from Biosource (Carlsbad, Calif.) and the Luminex Bio-Plex system (Bio-Rad, Hercules, Calif.).

[1] = Body weight change over the course of treatment in the xenograft study, as an indicator of safety; format: in vivo, Taconic nude mice; conditions: 50 and 100 mg/kg, orally daily for 21 days

CNC(=O)c1ccc2c(c1)OCCc1cc(C(=O)N(C)c3ccc(C(=O)N(C)C)cc3Cl)sc1-2 [Compound 223, N2-(2-chloro-4-(dimethylcarbamoyl)phenyl)-N2,N8-dimethyl-4,5-dihydrobenzo[b]thieno[2,3-d]oxepine-2,8-dicarboxamide]
pAkt (phospho-Akt), a potential biomarker of PI3K signal transduction disruption (pAkt (phospho-Akt)): suppressed pAkt
body weights compared with the group administered Vehicle [1]: did not significantly differ
